Data on nine compounds can be found in ChEMBL document CHEMBL1201862, “PubChem BioAssay data set” (2004).

Among the test systems are NCI-H226; NCI-H23; OVCAR-4; CAKI-1; 786-0; KM12; TK-10; SN12C; SF-295; OVCAR-5; HOP-92; RXF 631; IGROV-1; RXF 393; RPMI-8226; ACHN; MDA-N; SK-MEL-2; PC-3; MDA-MB-231.
Holding throughout (assay): NCI-60 cell line screen, 48 h

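Values below derive from 48-hour exposures of cells grown in 96-well plates, with endpoints linearly interpolated between the two concentrations bracketing the appropriate inhibition level. GI50 = concentration required for 50% inhibition of growth.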 Calls of active or inactive are those of the source. Rule as the data show it: active = GI50 up to about 1.1 µM and inactive = higher. A value given as a limit tells only on which side of the number the result lay.

In the case of `Cc1ccc(S(=O)(=O)CNC(=S)CCCC(=S)NCS(=O)(=O)c2ccc(C)cc2)cc1`, the GI50 with NCI-H226 is > 100 µM (inactive); in the assay with NCI-H23 it was 35.4 µM (inactive); with OVCAR-4, > 100 µM (inactive); with CAKI-1 it was > 100 µM (inactive); in the assay with 786-0, > 100 µM (inactive); in the assay with KM12, > 100 µM (inactive). Besides, the GI50 in the assay on TK-10 was > 100 µM (inactive); in the assay on SN12C, > 100 µM (inactive); in the assay on SF-295, > 100 µM (inactive); in the assay with OVCAR-5 it was > 100 µM (inactive); with HOP-92 it was 20.2 µM (inactive); in the assay with RXF 631, 41 µM (inactive). Further, the GI50 is > 100 µM (inactive) in the assay on IGROV-1, 79.4 µM (inactive) in the assay on RXF 393 and 21.4 µM (inactive) in the assay on RPMI-8226.

On to `COC(=O)N/N=C/C(=C/Nc1ccccc1)[N+](=O)[O-]`, for which the GI50 in the assay on NCI-H23 is > 100 µM (inactive); in the assay with OVCAR-4 it was > 100 µM (inactive); with 786-0 it was > 100 µM (inactive); in the assay with TK-10 it was > 100 µM (inactive); in the assay on SN12C, > 100 µM (inactive); in the assay on HOP-92 it was 21 µM (inactive). For the same compound, the GI50 in the assay with RXF 631, in the assay on ACHN, in the assay with IGROV-1, with RXF 393 and with RPMI-8226 was > 100 µM (inactive) in each case.

For the compound `Sc1ccccc1S`, the GI50 with NCI-H23 is > 100 µM (inactive); in the assay with OVCAR-4 it was > 100 µM (inactive); in the assay with CAKI-1 it was > 100 µM (inactive); in the assay with 786-0 it was > 100 µM (inactive); in the assay on TK-10, > 10 µM (inactive); in the assay with SN12C, > 100 µM (inactive). Further, the GI50 in the assay on SF-295, in the assay on HOP-92, with RXF 631, in the assay on ACHN, in the assay with IGROV-1 and in the assay on RXF 393 was > 100 µM (inactive) throughout.

Regarding `N#C[C-](C#N)[n+]1ccc(Cl)cc1`, the GI50 in the assay on NCI-H226 is 25.3 µM (inactive); in the assay with NCI-H23, 16.2 µM (inactive); in the assay with OVCAR-4, 24.9 µM (inactive); with CAKI-1, 3.53 µM (inactive); with 786-0 it was 18.7 µM (inactive); in the assay on KM12, 23.3 µM (inactive). The GI50 with TK-10 was 22.3 µM (inactive); in the assay with SN12C, 14.4 µM (inactive); in the assay with SF-295, 19 µM (inactive); in the assay with OVCAR-5 it was 18.7 µM (inactive); in the assay on HOP-92, 15.3 µM (inactive); in the assay on RXF 631, 17.4 µM (inactive). Also, the GI50 in the assay on IGROV-1 was 19.1 µM (inactive); in the assay with RXF 393, 16.7 µM (inactive); in the assay on RPMI-8226, 4.79 µM (inactive).

With `Oc1nc(-c2ccc3ccccc3c2)nc2ccccc12`, the GI50 in the assay on NCI-H226 was 12.6 µM (inactive); with NCI-H23, 58.5 µM (inactive); with MDA-N it was 49.2 µM (inactive); in the assay with OVCAR-4, 3.81 µM (inactive); in the assay on CAKI-1 it was 75 µM (inactive); in the assay on SK-MEL-2 it was 91.8 µM (inactive). Besides, the GI50 in the assay on PC-3 is > 100 µM (inactive); in the assay with 786-0 it was 6.89 µM (inactive); in the assay with KM12, > 100 µM (inactive); in the assay on TK-10, 0.771 µM (active); in the assay on MDA-MB-231, 29 µM (inactive); in the assay on SN12C, 54.1 µM (inactive). Further, the GI50 was 23.4 µM (inactive) in the assay on SF-295; 35.2 µM (inactive) in the assay on OVCAR-5; 17.4 µM (inactive) with HOP-92; 13.9 µM (inactive) with ACHN; 19.8 µM (inactive) in the assay on IGROV-1; 25.4 µM (inactive) in the assay on RXF 393. The GI50 in the assay on RPMI-8226 was > 100 µM (inactive).

For the compound `CN(C)Cc1ccc(C(C)(C)C)cc1-c1cc(C(C)(C)C)ccc1CN(C)C`, the GI50 in the assay on NCI-H226 is > 100 µM (inactive); with NCI-H23, 77.4 µM (inactive); with MDA-N, 48.5 µM (inactive); with OVCAR-4, 53.7 µM (inactive); in the assay with CAKI-1, > 100 µM (inactive); in the assay with SK-MEL-2, 76.9 µM (inactive). Further, the GI50 is 27.7 µM (inactive) with PC-3; 70.5 µM (inactive) in the assay with 786-0; 34.3 µM (inactive) in the assay with KM12; > 100 µM (inactive) in the assay with TK-10; 70.5 µM (inactive) with MDA-MB-231; 22.2 µM (inactive) with SN12C. In addition, the GI50 with SF-295 is 33.5 µM (inactive); with OVCAR-5, > 100 µM (inactive); in the assay with HOP-92, > 100 µM (inactive); in the assay on ACHN, > 100 µM (inactive); with IGROV-1, > 100 µM (inactive); in the assay on RXF 393, 97.1 µM (inactive). In addition, the GI50 in the assay with RPMI-8226 is 26.9 µM (inactive).

On to `O=C1O/C(=C/c2ccccc2)C(c2ccccc2)=C1O`, for which the GI50 was > 100 µM (inactive) in the assay with NCI-H226; 19 µM (inactive) with NCI-H23; 34 µM (inactive) in the assay with MDA-N; 55.3 µM (inactive) with OVCAR-4; 47.3 µM (inactive) with CAKI-1; 17.5 µM (inactive) with SK-MEL-2. The GI50 was 29.2 µM (inactive) with PC-3; 46.7 µM (inactive) in the assay on 786-0; 59.8 µM (inactive) in the assay on KM12; 75 µM (inactive) in the assay on TK-10; 38.1 µM (inactive) in the assay with MDA-MB-231; 33 µM (inactive) in the assay on SN12C. Besides, the GI50 is 36.3 µM (inactive) in the assay with SF-295; > 100 µM (inactive) with OVCAR-5; 61.5 µM (inactive) in the assay with HOP-92; 74 µM (inactive) in the assay with ACHN; 40.6 µM (inactive) in the assay with IGROV-1; 24.3 µM (inactive) in the assay on RXF 393. Moreover, the GI50 with RPMI-8226 was 28 µM (inactive).

On to `CC(=O)N1N=C(c2cc(C)ccc2O)CC1c1cccc(Cl)c1` (stereo not drawn), for which the GI50 in the assay on NCI-H226 was 16.1 µM (inactive); in the assay on NCI-H23 it was 13.5 µM (inactive); with MDA-N, 2.12 µM (inactive); in the assay on OVCAR-4, 13.7 µM (inactive); in the assay with CAKI-1 it was 27.3 µM (inactive); in the assay with SK-MEL-2, 10.3 µM (inactive). Besides, the GI50 is 3.35 µM (inactive) in the assay on PC-3; 21.7 µM (inactive) with 786-0; 5.7 µM (inactive) in the assay with KM12; 17.4 µM (inactive) with TK-10; 17.5 µM (inactive) in the assay on MDA-MB-231; 17.5 µM (inactive) in the assay with SN12C. Further, the GI50 in the assay with SF-295 was 10.9 µM (inactive); in the assay on OVCAR-5, 30.1 µM (inactive); in the assay with HOP-92, 3.17 µM (inactive); in the assay on ACHN it was 16.1 µM (inactive); in the assay with IGROV-1, 2.6 µM (inactive); in the assay on RXF 393, 11.3 µM (inactive). Moreover, the GI50 in the assay on RPMI-8226 is 6.24 µM (inactive).

Consider `C[C@]12CCC3c4ccc(O)cc4CC[C@H]3C1CC(=O)NC2=O` (stereo partly drawn), for which the GI50 in the assay on NCI-H226, in the assay with NCI-H23, with MDA-N, in the assay with OVCAR-4, in the assay on CAKI-1 and with SK-MEL-2 was > 10 µM (inactive) throughout. Also, the GI50 with PC-3, with 786-0, with KM12, with TK-10, in the assay on MDA-MB-231 and in the assay with SN12C was > 10 µM (inactive) in each case. The GI50 in the assay with SF-295, in the assay on OVCAR-5, with HOP-92, in the assay with ACHN, in the assay on IGROV-1 and in the assay on RXF 393 was > 10 µM (inactive) each time. The GI50 in the assay with RPMI-8226 was > 10 µM (inactive).
